The text below walks through data of US11466027B2, “Modulators of the NMDA receptor” (H. Lundbeck A/S, priority 2019, dated 2022).

Like-named read-outs stand apart in the source and are kept apart here.

Data set [1] can be described thus: In vivo exposure (brain disposition) after intravenous bolus injection. Further details: species or system male Sprague Dawley rats. The following applies: male, Sprague-Dawley, rat, 2 mg/kg intravenous bolus, 30 min post dose. Here is the method: Brain disposition of test compound was evaluated in male Sprague Dawley rats (standard body weight range). Briefly, discrete (nominal dose: 2 mg/kg, 2 ml/kg) or cassetted (nominal dose: 1 mg/kg/compound, 2 ml/kg) test compounds were administered by intravenous bolus injection (formulated in 10% hydroxypropyl-β-cyclodextrin or 10-20% Captisol, pH=3).
Serial blood samples were collected from a lateral tail vein at designated time points (n=3 per time point) then rats were put under deep isoflurane induced anesthesia prior to removal of brains (n=3 per time point). Blood was collected into K3-EDTA-coated tubes and the samples were gently turned upside-down to ensure a homogenous sample. The tubes were centrifuged at 3300×g for 10 min. at max 4° C. and plasma samples were transferred to Micronic tubes. […]
Seven calibration standards and three QC samples were prepared in plasma and brain homogenate, respectively, in the concentration range 10-10000 ng/mL. […] Study samples with expected concentration above upper limit of quantification were diluted with blank matrix. […]
Samples were analyzed using an AB Sciex API4000 triple quadrupole (TQ) mass spectrometer operated in positive and negative electrospray ionization and MS/MS mode (multiple reaction monitoring, MRM). […] Quantification was performed by linear regression, 1/x2 weighting.

The test system of data set [2] is High Frequency Oscillations (HFO) in the nucleus accumbens. Description: Resting state electroencephalography (rsEEG) in rats. It is filed as in vivo. The following applies: rat, 20 mg/kg, vs 10% captisol, FIG. 1. Here is the method: On the day of surgery, rats (270-300 g) were anesthetized with a 0.25 ml/100 g subcutaneous (SC) injection of 1:1 hypnorm/Dormicum and mounted in a stereotaxic frame (David Kopf Instruments, Tujunga, Calif., USA) with blunt ear bars. Marcain (0.2 ml SC) was injected under the scalp, and gel (Neutral Opthta Eye Gel) put on the eyes to prevent the mucous membrane drying out. Holes were burred in the skull to allow for placement of three depth electrodes (E363-series; PlasticsOne, Roanoke, Va., USA) in medial prefrontal cortex (mPFC) (AP: 3.0 mm from the bregma suture, ML: −0.7 mm from the sagittal suture and DV: 3.0 mm from the dura), Nucleus accumbens (NAc): (AP+1.6 mm from the bregma suture, ML: −1.0 mm from the sagittal suture, DV: −6.7 mm from the dura) and thalamus (AP: −2.8 mm from the bregma suture, ML: +0.7 mm from the sagittal suture and DV: 4.4 mm from the dura) and three screw electrodes above the auditory cortex (A1) (AP: −4.8 mm from the bregma suture, ML: +6.4 mm from the sagittal suture), a reference electrode (AP: +8.0 mm and ML: −2.0 mm), and a ground electrode (AP: −5 mm, ML: +5 mm). […] Animal bodyweights were recorded daily. […]
Rats were handled daily and habituated to recording box the week before recording sessions. […] The analysis of the locomotor behaviour was based on the recorded accelerometer signal. […]

Data set [3] is described as follows: Microdialysis studies in rats (ventral hippocampus). The following applies: 30 mg/kg subcutaneously, FIG. 2. It is filed as in vivo, Male Sprague-Dawley rats. Here is the method:
Male Sprague-Dawley rats, initially weighing 275-300 g, were used. The animals were housed under a 12-hr light/dark cycle under controlled conditions for regular in-door temperature (21±2° C.) and humidity (55±5%) with food and tap water available ad libitum.
Rats were anaesthetised with hypnorm/dormicum (2 ml/kg) and intracerebral guide cannulas.
(CMA/12) were stereotaxically implanted into the brain, aiming to position the dialysis probe tip in the ventral hippocampus (co-ordinates: 5.6 mm posterior to bregma, lateral −4.8 mm, 7.0 mm ventral to dura. Anchor screws and acrylic cement were used for fixation of the guide cannulas. The body temperature of the animals was monitored by rectal probe and maintained at 37° C. The rats were allowed to recover from surgery for 2 days, housed singly in cages.
On the day of the experiment a microdialysis probe (CMA/12, 0.5 mm diameter, 3 mm length) was inserted through the guide cannula. The probe was connected via a dual channel swivel to a microinjection pump. Perfusion of the microdialysis probe with filtered Ringer solution (145 mm NaCl, 3 mM KCl, 1 mM MgCl2, 1.2 mM CaCl2) was begun shortly before insertion of the probe into the brain and continued for the duration of the experiment at a constant flow rate of 1 μl/min. After 180 min of stabilisation, the experiments were initiated. […]

Data set [4] concerns the target NR1s1s2 (ligand binding domains of the NMDA receptor), glycine site (Rattus norvegicus, UniProt P35439). The data set can be described thus: Scintillation Proximity Assay (SPA), displacement of [3H]-MDL-105,519. Conditions: radioligand used in SPA. An excerpt:
Scintillation Proximity Assay (SPA):
Normalized data are used to calculate Ki values.

`Cc1ccnc2cc(C(=O)NC[C@@H](N)C(=O)O)sc12` [Compound 1e, (R)-2-amino-3-[(7-methylthieno[3,2-b]pyridine-2-carbonyl)amino]propanoic acid]: the concentration at 30 min was 8.4 ng/mL in data set [1] (brain, read-out: Total Brain concentration (ng/mL) 30 min post dose) and 270 ng/mL in data set [1] (plasma, read-out: Total Plasma concentration (ng/mL) 30 min post dose). In addition, the “Effect in rsEEG (High Frequency Oscillations in the nucleus accumbens) compared to vehicle” value in data set [2] is “clear effect”. In addition, in data set [3], the “Extracellular levels in the rat ventral hippocampus after systemic administration” value is “considerable extracellular levels”.
As to `O=C(O)C(=Cc1c(C(=O)O)[nH]c2cc(Cl)cc(Cl)c12)c1ccccc1` [[^3H]-MDL-105,519], the Kd – broadly, a measure of binding affinity in units of concentration – in data set [4] amounted to 1.3 nM.
